Results as given in ChEMBL document CHEMBL2375258, “Synthesis of (R)-norbgugaine and its potential as quorum sensing inhibitor against Pseudomonas aeruginosa” (Bioorg Med Chem Lett, 2013).
Active and inactive are the calls of the source. The calls are words filed in the database; no cut-off is given here.

Legend:
Pseudomonas aeruginosa [1] = test: Inhibition of quorum sensing system in Pseudomonas aeruginosa ATCC 27853 assessed as inhibition of swarming motility at 0.1 to 0.5 mM after 24 hrs relative to control
Pseudomonas aeruginosa [2] = details: ATCC 27853, 4 mM
Description: Inhibition of quorum sensing system in Pseudomonas aeruginosa ATCC 27853 assessed as inhibition of biofilm formation at 4 mM after 24 hrs by crystal violet staining method relative to control

Pseudomonas aeruginosa [3] = test: Inhibition of quorum sensing system in Pseudomonas aeruginosa ATCC 27853 assessed as inhibition of twitching motility at 0.1 to 0.5 mM after 24 hrs relative to control
Pseudomonas aeruginosa [4] = test: Inhibition of quorum sensing system in Pseudomonas aeruginosa ATCC 27853 assessed as inhibition of swimming motility at 0.1 to 0.5 mM after 24 hrs relative to control
Pseudomonas aeruginosa [5] = test: Inhibition of quorum sensing system in Pseudomonas aeruginosa ATCC 27853 assessed as inhibition of LasA at 0.1 to 0.5 mM relative to control
Pseudomonas aeruginosa [6] = test: Antibacterial activity against Pseudomonas aeruginosa ATCC 27853 assessed as growth inhibition at 100 ug/mL measured every 2 hrs up to 20 hrs; type: functional, organism-based
Pseudomonas aeruginosa [7] = test: Inhibition of quorum sensing system in Pseudomonas aeruginosa ATCC 27853 assessed as inhibition of biofilm formation at > 1.8 mM after 24 hrs by crystal violet staining method relative to control
Pseudomonas aeruginosa [8] = test: Inhibition of quorum sensing system in Pseudomonas aeruginosa ATCC 27853 assessed as inhibition of […] pigmentation at 0.1 to 0.5 mM relative to control
Pseudomonas aeruginosa [9] = test: Ratio of compound activity to salicylic acid activity for inhibition of quorum sensing system-mediated biofilm formation in Pseudomonas aeruginosa ATCC 27853
Pseudomonas aeruginosa [10] = test: Inhibition of quorum sensing system in Pseudomonas aeruginosa ATCC 27853 assessed as inhibition of rhamnolipid production at 0.1 to 0.5 mM relative to control

Compound | inhibition (Pseudomonas aeruginosa [1]) [%] | inhibition (Pseudomonas aeruginosa [2]) [%] | inhibition (Pseudomonas aeruginosa [3]) [%] | inhibition (Pseudomonas aeruginosa [4]) [%] | inhibition (Pseudomonas aeruginosa [5]) [%] | growth inhibition (GI) (Pseudomonas aeruginosa [6]) | inhibition (Pseudomonas aeruginosa [7]) [%] | inhibition (Pseudomonas aeruginosa [8]) [%] | Ratio (Pseudomonas aeruginosa [9]) | inhibition (Pseudomonas aeruginosa [10]) [%]
O=C(O)c1ccccc1O | 60 | 48 | 35 | 40 |  |  |  |  |  | 
CCCCCCCCCCCCCC[C@@H]1CCCN1 | 95 |  | 15 | 33 | 34 | inactive | 83 | 37 | 2 | 42
